Measured values from PMC9136306 (The Journal of General Physiology, 2022).
Where “and” joins values, the source holds several entries; their conditions need not be identical. Equal entries are not always repeated.

What was measured:
human α7-AChR = human α7-AChR (Homo sapiens, UniProt P36544); experiment: cell-based; format: binding; details: for IC50: Unlabeled-ligand half-competition concentration
[1] = target: T1, Human–C. elegans α7-AChR–β-GluCl chimera S56T + S172T (Homo sapiens, UniProt P36544, S172T/S56T)
T1 sequence (Q17328 245-434): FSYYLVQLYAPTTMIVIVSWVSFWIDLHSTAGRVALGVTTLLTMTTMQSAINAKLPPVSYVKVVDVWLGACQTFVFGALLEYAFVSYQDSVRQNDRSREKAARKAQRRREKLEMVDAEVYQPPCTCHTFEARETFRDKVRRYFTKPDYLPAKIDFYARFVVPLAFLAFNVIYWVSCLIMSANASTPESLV
T1 sequence (P36544 23-230 S56T/S172T): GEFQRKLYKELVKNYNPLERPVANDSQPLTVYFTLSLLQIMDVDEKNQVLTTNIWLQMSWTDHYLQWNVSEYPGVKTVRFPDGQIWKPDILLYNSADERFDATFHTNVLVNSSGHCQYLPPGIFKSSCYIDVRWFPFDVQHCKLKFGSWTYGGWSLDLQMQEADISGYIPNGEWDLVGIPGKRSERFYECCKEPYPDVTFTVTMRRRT

[2] = target: Chicken–C. elegans α7-AChR–β-GluCl ECD–TMD chimera (UniProt P22770+Q17328); experiment: cell-based; format: binding
Sequence of Chicken–C. elegans α7-AChR–β-GluCl ECD–TMD chimera (P22770 whole entry, looked up, stated change not applied, the tested form may be a part): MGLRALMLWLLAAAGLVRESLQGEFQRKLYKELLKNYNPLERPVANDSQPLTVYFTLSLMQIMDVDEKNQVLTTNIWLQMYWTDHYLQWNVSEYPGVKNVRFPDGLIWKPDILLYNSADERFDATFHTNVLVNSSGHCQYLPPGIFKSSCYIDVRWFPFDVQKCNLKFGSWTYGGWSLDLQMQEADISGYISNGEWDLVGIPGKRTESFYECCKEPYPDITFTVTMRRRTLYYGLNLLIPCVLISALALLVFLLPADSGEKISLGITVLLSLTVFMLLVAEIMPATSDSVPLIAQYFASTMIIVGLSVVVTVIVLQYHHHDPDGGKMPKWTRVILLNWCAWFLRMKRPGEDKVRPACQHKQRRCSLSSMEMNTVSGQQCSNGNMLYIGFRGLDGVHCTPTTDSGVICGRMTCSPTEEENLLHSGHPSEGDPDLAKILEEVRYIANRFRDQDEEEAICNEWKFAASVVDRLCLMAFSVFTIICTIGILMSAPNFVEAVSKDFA
Sequence of Chicken–C. elegans α7-AChR–β-GluCl ECD–TMD chimera (Q17328 whole entry, looked up, stated change not applied, the tested form may be a part): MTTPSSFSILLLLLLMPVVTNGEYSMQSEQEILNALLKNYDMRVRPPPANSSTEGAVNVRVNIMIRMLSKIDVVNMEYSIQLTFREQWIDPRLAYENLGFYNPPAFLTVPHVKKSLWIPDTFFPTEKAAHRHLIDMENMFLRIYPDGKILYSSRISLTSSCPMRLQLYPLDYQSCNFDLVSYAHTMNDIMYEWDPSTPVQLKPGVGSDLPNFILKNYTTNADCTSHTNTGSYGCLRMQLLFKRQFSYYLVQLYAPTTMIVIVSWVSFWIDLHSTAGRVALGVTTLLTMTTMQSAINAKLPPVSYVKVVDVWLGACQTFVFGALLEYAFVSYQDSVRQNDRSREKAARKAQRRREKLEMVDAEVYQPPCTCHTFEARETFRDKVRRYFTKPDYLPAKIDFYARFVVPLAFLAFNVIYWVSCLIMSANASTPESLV

[3] = target: T1, Human–C. elegans α7-AChR–β-GluCl chimera S56T + S172T; experiment: biochemical; details: Unlabeled-ligand half-competition concentration
[4] = target: Human–C. elegans α7-AChR–β-GluCl ECD–TMD chimera (UniProt P36544+Q17328); experiment: cell-based; format: binding
Sequence of Human–C. elegans α7-AChR–β-GluCl ECD–TMD chimera (P36544 whole entry, looked up, change not shown, the tested form may be a part): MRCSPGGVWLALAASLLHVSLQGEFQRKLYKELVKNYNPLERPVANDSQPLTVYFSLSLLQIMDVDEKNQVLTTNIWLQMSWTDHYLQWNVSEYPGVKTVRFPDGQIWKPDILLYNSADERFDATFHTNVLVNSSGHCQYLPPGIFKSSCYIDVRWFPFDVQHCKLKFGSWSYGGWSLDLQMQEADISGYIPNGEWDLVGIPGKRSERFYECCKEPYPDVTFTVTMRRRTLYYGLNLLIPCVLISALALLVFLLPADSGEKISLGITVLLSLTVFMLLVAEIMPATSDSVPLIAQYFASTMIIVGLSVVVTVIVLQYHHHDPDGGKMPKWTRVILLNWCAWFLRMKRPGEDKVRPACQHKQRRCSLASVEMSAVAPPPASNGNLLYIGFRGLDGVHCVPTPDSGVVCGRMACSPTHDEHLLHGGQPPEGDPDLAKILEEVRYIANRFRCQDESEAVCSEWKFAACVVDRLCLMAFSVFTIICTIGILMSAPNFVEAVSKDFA
Sequence of Human–C. elegans α7-AChR–β-GluCl ECD–TMD chimera (Q17328 whole entry, looked up, change not shown, the tested form may be a part): as the sequence (Q17328 whole entry, looked up, stated change not applied, the tested form may be a part) above

Sequence of human α7-AChR (P36544 23-502): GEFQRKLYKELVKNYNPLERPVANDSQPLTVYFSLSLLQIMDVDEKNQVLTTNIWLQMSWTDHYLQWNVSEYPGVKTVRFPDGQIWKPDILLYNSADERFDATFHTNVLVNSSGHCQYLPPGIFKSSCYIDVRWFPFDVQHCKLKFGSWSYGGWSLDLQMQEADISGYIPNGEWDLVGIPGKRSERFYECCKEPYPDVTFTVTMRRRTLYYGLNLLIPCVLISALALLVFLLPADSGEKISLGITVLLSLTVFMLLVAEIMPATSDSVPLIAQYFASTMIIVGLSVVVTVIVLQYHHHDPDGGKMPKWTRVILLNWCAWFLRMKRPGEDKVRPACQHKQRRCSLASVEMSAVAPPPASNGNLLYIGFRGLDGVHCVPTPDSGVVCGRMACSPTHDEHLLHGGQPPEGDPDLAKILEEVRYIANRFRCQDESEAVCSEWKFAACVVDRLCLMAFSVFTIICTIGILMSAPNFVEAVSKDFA

C[N+](C)(C)CCO [Choline, choline]
Unlabeled-ligand nH (Hill coefficient, competition) (human α7-AChR): 1.28 ± 0.08
IC50 (human α7-AChR): 204 ± 16 µM

CCN1C[C@]2(COC(=O)c3ccccc3N3C(=O)C[C@H](C)C3=O)CC[C@H](OC)[C@@]34[C@@H]5C[C@H]6[C@H](OC)[C@@H]5[C@](O)(C[C@@H]6OC)[C@@](O)([C@@H](OC)[C@H]23)[C@@H]14 [MLA, methyllycaconitine]
Unlabeled-ligand nH (Hill coefficient, competition) (human α7-AChR): 0.95 ± 0.05
IC50 (human α7-AChR): 0.0889 ± 0.00854 µM
Unlabeled-ligand nH (Hill coefficient, competition) [1]: 1.04 ± 0.08
IC50 [2]: 0.0049 ± 0.00052 µM
Unlabeled-ligand nH (Hill coefficient, competition) [2]: 0.990 ± 0.07
difference between closed-state affinities of the chicken and human α7-AChR ECDs [2]: ~14 fold
IC50 [3]: 0.032 µM and 0.0325 µM
Unlabeled-ligand nH (Hill coefficient, competition) [4]: 1.01 ± 0.05
IC50 ([4]; Unlabeled-ligand half-competition concentration): 0.068 µM and 0.0683 µM

CN1CCC[C@H]1c1cccnc1 [Nicotine, nicotine]
Hill coefficient, individual curve fitted separately (human α7-AChR): 1.50 ± 0.001 and 1.28 ± 0.001 and 1.42 ± 0.13
Unlabeled-ligand nH (Hill coefficient, competition) (human α7-AChR): 1.41 ± 0.06
IC50 [2]: 3.68 ± 0.11 µM
Unlabeled-ligand nH (Hill coefficient, competition) [2]: 1.80 ± 0.07
Unlabeled-ligand nH (Hill coefficient, competition) [4]: 1.08 ± 0.06
